Data published in patent publication US20140005412A1, “TREATMENT OF ARTERIAL AGEING BY HMG CoA REDUCTASE INHIBITOR” (FARMICOM PHARMACEUTICAL COMPANY D.O.O., priority 2011, published 2014).

What was measured:
[1] = system: brachial artery; assay: Ultrasound measurement of flow-mediated dilatation of brachial artery (FMD), endothelial function; assay type: in vivo, human; details: for FMD, after treatment: after 1 month (30 days) treatment; for FMD, improvement: after 1 month vs before treatment
Experimental: Fifty apparently healthy male individuals (42.6±1.9 years) were recruited in double blind, randomized study. Inclusion criteria were: The control group (n=25) received placebo, while the test group (n=25) received subtherapeutic daily dose of fluvastatin sodium-10 mg daily (the recommended therapeutic daily dose is 40 to 80 mg) during a period of 1 month-30 days. All subjects underwent clinical examination, blood pressure measurements ([…] automated sphygmomanometer) and ultrasound measurement of flow-mediated dilatation of brachial artery (FMD), pulse-wave velocity (PWV) and β-stiffness of carotid artery at inclusion (0th day) and after 1 month (30th day) of the study. Fasting blood samples were taken at the beginning and at the end of the study for laboratory analysis. Blood glucose, electrolytes and cholesterol were obtained using the VITRO 5.1 FS Chemical system (Ortho Clinical Diagnostics, Inc.). Ultrasound measurements were performed by a single examiner using Aloka ProSound Alpha 10 echo-machine. Endothelial function was measured by means of FMD on the brachial artery according to FMD guidelines (Corretti M C et al. Guidelines for the ultrasound assessment of endothelial-dependent flow-mediated vasodilation of the brachial artery: a report of the International Brachial Artery Reactivity Task Force. J Am Coll Cardiol 2002; 39: 257-65). The echo-machine continuously tracked and recorded the brachial artery diameter. Following the measurement of baseline brachial artery diameter (1 min), the forearm blood pressure cuff was inflated to 50 mmHg above the systolic pressure for 4 min. After the occlusion period, the cuff was rapidly deflated, inducing reactive hyperemia, and the brachial artery diameter was recorded for 3 min. At the end of the measurement, the machine automatically provided the values of FMD. All values were expressed as arithmetic mean±SEM and were normally distributed. Differences between values recorded at the beginning (0th day) and at the end of the study (30th day) were determined by one-way analysis of variance (ANOVA). When a significant interaction was present, the Bonferroni post-test was performed. […] All statistical analyses were performed using Graph Pad Prism 5.0 software.

[2] = system: right common carotid artery; assay: Ultrasound measurement of pulse-wave velocity (PWV); assay type: in vivo, human; details: for PWV, after treatment: after 1 month (30 days) treatment; for PWV, improvement: after 1 month vs before treatment
Experimental: (§1) Fifty apparently healthy male individuals (42.6±1.9 years) were recruited in double blind, randomized study. Inclusion criteria were: The control group (n=25) received placebo, while the test group (n=25) received subtherapeutic daily dose of fluvastatin sodium-10 mg daily (the recommended therapeutic daily dose is 40 to 80 mg) during a period of 1 month-30 days. All subjects underwent clinical examination, blood pressure measurements ([…] automated sphygmomanometer) and ultrasound measurement of flow-mediated dilatation of brachial artery (FMD), pulse-wave velocity (PWV) and β-stiffness of carotid artery at inclusion (0th day) and after 1 month (30th day) of the study. Fasting blood samples were taken at the beginning and at the end of the study for laboratory analysis. Blood glucose, electrolytes and cholesterol were obtained using the VITRO 5.1 FS Chemical system (Ortho Clinical Diagnostics, Inc.). The measurements of PWV and β-stiffness were performed on the right common carotid artery. The Aloka ultrasound device was also equipped with special software for automatic determination of the PWV and beta-stiffness through the analysis of pulse waves (Carerj S et al. Normal vascular aging evaluated by a new tool: e-tracking. Eur J Echocardiography 2006; suppl: S 49). All values were expressed as arithmetic mean±SEM and were normally distributed. Differences between values recorded at the beginning (0th day) and at the end of the study (30th day) were determined by one-way analysis of variance (ANOVA). When a significant interaction was present, the Bonferroni post-test was performed. […] All statistical analyses were performed using Graph Pad Prism 5.0 software.

[3] = system: right common carotid artery; assay: Ultrasound measurement of β-stiffness of carotid artery; assay type: in vivo, human; details: for β-stiffness, after treatment: after 1 month (30 days) treatment; for β-stiffness, improvement: after 1 month vs before treatment
Experimental: as §1

[4] = system: arterial wall; assay: "Biological" arterial age according to age-related normogram; assay type: in vivo, human
Text: It is important to emphasize that there is a similarity between the terms morphological or structural which are used to describe the same characteristics by different authors but basically disclose the same characteristics of arterial wall. All three above mentioned methods FMD, PWV, and β-stiffness are standard in the art and generally widely accepted methods for estimation of functional or morphological characteristics of arteries. When administering the pharmaceutical composition according to the present invention the significant and unexpected improvement in all above mentioned characteristics are observed. Furthermore, by using age-related normogram obtained on large sample of apparently healthy subjects—who have a low cardiovascular risk as defined above—the estimation of “biological” arterial age can be determined. […] By using age-related normogram (according to the methods described in Jurasic M J et al. Beta stiffness—setting age standards. Acta Clin Croat 2009; 48:253-8; and Carerj S. Normal vascular ageing evaluated by a new tool: e-tracking. Eur J Echocardiography 2006; suppl 1:S49. Carerj S et al. Eur J Echocardiography 2006; suppl: S 49) the “biological” arterial age in participants according to Example 1 after 1 month of treatment and according to Example 2 after 5, 7 and 8 months after discontinuation of treatment was calculated (FIG. 3).

[5] = Fasting blood laboratory analysis (cholesterol, triglycerides, glucose); assay type: in vivo, human; details: Example 1, n=25, 10 mg daily, mean ± SEM
Text: All subjects underwent clinical examination, blood pressure measurements ([…] automated sphygmomanometer) and ultrasound measurement of flow-mediated dilatation of brachial artery (FMD), pulse-wave velocity (PWV) and β-stiffness of carotid artery at inclusion (0th day) and after 1 month (30th day) of the study. Fasting blood samples were taken at the beginning and at the end of the study for laboratory analysis. Blood glucose, electrolytes and cholesterol were obtained using the VITRO 5.1 FS Chemical system (Ortho Clinical Diagnostics, Inc.).

[6] = system: arterial wall; assay: "Biological" arterial age according to age-related normogram; assay type: in vivo, human; remark: listed apart in the source
[7] = blood plasma; cited from earlier work
[8] = Example 2, rest period 7 months
[9] = Example 2, rest period 8 months
[10] = Example 4, 10 mg daily, after 1 month treatment period
[11] = Example 5, rest period 5 months
[12] = Example 5, rest period 8 months
[13] = Example 6, ten participants, 10 mg daily, 1. intervention, before
[14] = Example 6, 1. intervention, after 1 month of treatment
[15] = Example 6, 2. intervention (repetition), after 1 month of treatment
[16] = Example 6, 2. intervention (repetition), before, after rest period of 12 months
[17] = Example 1 study, 10 mg, after 30 days of treatment
[18] = Example 2, rest period 5 months
[19] = Example 5, rest period 3 months

CC(C)n1c(/C=C/C(O)CC(O)CC(=O)O)c(-c2ccc(F)cc2)c2ccccc21 (stereo not drawn) [Fluvastatin sodium, fluvastatin sodium]
FMD, after treatment ([1]; Example 1, 10 mg daily): 4.39% | FMD, improvement ([1]; Example 1, 10 mg daily): +91.0% | FMD, before treatment ([1]; Example 1, 10 mg daily): 2.31% | FMD increased by ([1]; Example 1 study (50 subjects, double-blind), 10 mg, after 30 days of treatment): 91.0% | FMD, residual improvement in % of effect achieved after 1 month of treatment ([1]; Example 2 (participants of Example 1), rest period 5 months): 53.3% | FMD, residual improvement in % of effect achieved after 1 month of treatment [1, 8]: 33% | FMD, residual improvement in % of effect achieved after 1 month of treatment [1, 9]: 10.5% | FMD increased by [1, 10]: 120.8% | FMD, after treatment ([1]; Example 4, 10 mg daily): 5.30% | FMD, improvement ([1]; Example 4, 10 mg daily): +120.8% | FMD, before treatment ([1]; Example 4, healthy males n=15, 10 mg daily): 2.40% | FMD, residual improvement in % of effect achieved after 1 month of treatment ([1]; Example 5 (participants of Example 4), rest period 3 months): 73.4% | FMD, residual improvement in % of effect achieved after 1 month of treatment [1, 11]: 55.2% | FMD, residual improvement in % of effect achieved after 1 month of treatment [1, 12]: 16.3% | FMD [1, 13]: 3.5 ± 0.6% | FMD [1, 14]: 5.3 ± 0.6% | FMD [1, 15]: 5.7 ± 0.2% | FMD [1, 16]: 3.9 ± 0.8% | PWV, after treatment ([2]; Example 1, 10 mg daily): 5.41 m/s | PWV, improvement ([2]; Example 1, 10 mg daily): −6.4% | PWV, before treatment ([2]; Example 1, 10 mg daily): 5.76 m/s | PWV decreased by [2, 17]: 6.4% | PWV, residual improvement in % of effect achieved after 1 month of treatment [2, 18]: 29.7% | PWV, residual improvement in % of effect achieved after 1 month of treatment [2, 8]: 10% | PWV, residual improvement in % of effect achieved after 1 month of treatment [2, 9]: 1.9% | PWV decreased by [2, 10]: 10.4% | PWV, after treatment ([2]; Example 4, 10 mg daily): 5.00 m/s | PWV, improvement ([2]; Example 4, 10 mg daily): −10.4% | PWV, before treatment ([2]; Example 4, 10 mg daily): 5.52 m/s | PWV, residual improvement in % of effect achieved after 1 month of treatment [2, 19]: 55.2% | PWV, residual improvement in % of effect achieved after 1 month of treatment [2, 11]: 30.1% | PWV, residual improvement in % of effect achieved after 1 month of treatment [2, 12]: 5.2% | PWV [2, 13]: 5.5 ± 0.4 m/s | PWV [2, 14]: 5.1 ± 0.4 m/s | PWV [2, 15]: 5.3 ± 0.3 m/s | PWV [2, 16]: 5.6 ± 0.3 m/s | β-stiffness, after treatment ([3]; Example 1, 10 mg daily): 6.40 U | β-stiffness, improvement ([3]; Example 1, 10 mg daily): −10.9% | β-stiffness, before treatment ([3]; Example 1, 10 mg daily): 7.10 U | β-stiffness decreased by [3, 17]: 10.9% | β-stiffness, residual improvement in % of effect achieved after 1 month of treatment [3, 18]: 30.4% | β-stiffness, residual improvement in % of effect achieved after 1 month of treatment [3, 8]: 9% | β-stiffness, residual improvement in % of effect achieved after 1 month of treatment [3, 9]: 0.9% | β-stiffness of the carotid artery decreased by [3, 10]: 12.7% | β-stiffness, after treatment ([3]; Example 4, 10 mg daily): 6.10 U | β-stiffness, improvement ([3]; Example 4, 10 mg daily): −12.7% | β-stiffness, before treatment ([3]; Example 4, 10 mg daily): 6.88 U | β-stiffness, residual improvement in % of effect achieved after 1 month of treatment [3, 19]: 50.1% | β-stiffness, residual improvement in % of effect achieved after 1 month of treatment [3, 11]: 33.6% | β-stiffness, residual improvement in % of effect achieved after 1 month of treatment [3, 12]: 3.1% | β-stiffness [3, 13]: 6.4 ± 0.8 U | β-stiffness [3, 14]: 5.7 ± 0.7 U | β-stiffness [3, 15]: 6.0 ± 0.6 U | β-stiffness [3, 16]: 6.6 ± 0.6 U | Arterial age according to age normogram, after treatment ([4]; Example 1, 10 mg daily, after 1 month treatment): 38.2 years | Arterial age according to age normogram, improvement ([4]; Example 1, 10 mg daily, after 1 month vs before treatment): −6.8 years | Arterial age according to age normogram, before treatment ([4]; Example 1, 10 mg daily, before treatment): 45.0 years | Arterial age according to age-related normogram [4, 18]: 42.3 years | Arterial age according to age-related normogram, difference (in brackets) to before treatment [4, 18]: −2.7 years | Arterial age according to age-related normogram, difference (in brackets) to before treatment [4, 9]: −0.5 years | HDL cholesterol ([5]; 1st day (baseline)): 1.2 ± 0.1 mmol/L | LDL cholesterol ([5]; 1st day (baseline)): 3.7 ± 0.2 mmol/L | Total cholesterol ([5]; 1st day (baseline)): 5.7 ± 0.2 mmol/L | Triglycerides ([5]; 1st day (baseline)): 1.6 ± 0.2 mmol/L | HDL cholesterol ([5]; 30th day): 1.2 ± 0.1 mmol/L | LDL cholesterol ([5]; 30th day): 3.6 ± 0.2 mmol/L | Total cholesterol ([5]; 30th day): 5.4 ± 0.2 mmol/L | Triglycerides ([5]; 30th day): 1.6 ± 0.3 mmol/L | Arterial age according to age-related normogram [6, 8]: 43.6 years | Arterial age according to age-related normogram, difference (in brackets) to before treatment [6, 8]: −1.4 years | Arterial age according to age-related normogram [6, 9]: 44.5 years | Arterial age according to age-related normogram, after treatment ([6]; Example 4, 10 mg daily, after 1 month treatment): 32.0 years | Arterial age according to age-related normogram, improvement ([6]; Example 4, 10 mg daily, after 1 month vs before treatment): −9.0 years | Arterial age according to age-related normogram, before treatment ([6]; Example 4, 10 mg daily, before treatment): 41.0 years | Arterial age according to age-related normogram [6, 19]: 34.2 years | Arterial age according to age-related normogram, difference (in brackets) to before treatment [6, 19]: −6.8 years | Arterial age according to age-related normogram [6, 11]: 36.4 years | Arterial age according to age-related normogram, difference (in brackets) to before treatment [6, 11]: −4.6 years | Arterial age according to age-related normogram [6, 12]: 40.0 years | Arterial age according to age-related normogram, difference (in brackets) to before treatment [6, 12]: −1.0 years | half-life time (t1/2) [7]: about 2.5 hours
